Patent publication US9102620B2, “Deuterated N-ethyl-N-phenyl-1,2-dihydro-4-hydroxy-5-chloro-1-methyl-2-oxoquinoline-3-carboxamide, salts and uses thereof” (TEVA PHARMACEUTICAL INDUSTRIES, LTD., priority 2010, dated 2015)
Values joined by “and” are separate entries in the source; they are usually repeats but may differ in a detail not shown here. Equal values may be shown once. Read-outs that look alike come from different tables or passages of the source.

Tests used:
[1] = Pharmacokinetic profile in rat plasma following oral administration; assay type: in vivo
Protocol: The main objectives of this example were: • Quantification of Compound 1, Compound 2, Compound 3 and Laquinimod in rat plasma using LC/MS/MS bioanalytical method. • Characterization of the pharmacokinetic profile of Compound 1, Compound 2, Compound 3 and Laquinimod following oral (PO) administration at a dose of 0.2 mg/kg. • The measurement DELAQ concentrations in the collected plasma samples. Rats cannulated at the right common jugular vein by polyethylene tubing were used. In the in-life part, three cannulated female rats were treated with each of the four test articles at dose of 0.2 mg/kg. Blood was withdrawn from the rats at five different time points for the preparation of plasma. The concentrations of Compound 1, Compound 2, Compound 3, laquinimod, and DELAQ were determined in these plasma samples, using applicable LC/MS/MS methods. Oral administration was performed by oral gavage at a dosage volume of 5 ml/kg using a blunt feeding stainless steel needle (Popper & Sons, USA). Body weights were measured before dose administration and doses were calculated on the basis of individual body weight. Blood were withdrawn from animals at the following time points: 1, 2, 4, 8 and 24 hours after dosing as detailed in the table below. The actual sampling time were recorded. Each animal was restrained firmly. After the removal of the seal the port of the cannula was accessed with an appropriate blunted needle mounted on a syringe containing PBS. After having withdrawn approximately 100 μL of blood, the syringe was changed to a clean heparinized syringe. Approximately 250 μL of blood was collected for the preparation of plasma. The first 100 μL fraction of blood was returned and 250 μL of PBS was given to the animal through the catheter. The catheter was filled by heparinized glycerol (100 IU/ml) solution prepared by mixing 10 ml stock heparin (200 IU/ml) with 10 ml of sterile glycerol (d=1.26 g/mL). Blood specimens were mixed immediately and were placed on water ice. Whole blood was centrifuged at 2500 g for 10 min at 4° C., and the separated plasma was transferred into pre-labeled polypropylene tubes and the tubes were frozen at −70° C. within 70 minutes of collection. The concentrations of test items (Compound 1, Compound 2, Compound 3 and Laquinimod) and the concentration of DELAQ were determined in the plasma samples by using reliable LC/MS/MS assay. Pharmacokinetic parameters were calculated and the mean plasma levels versus time curves were evaluated. The following pharmacokinetic parameters were determined from the mean plasma concentration-time data (mean of three animals at each time point) of Compound 1, Compound 2, Compound 3 and Laquinimod.

[2] = DELAQ concentrations in rat plasma following oral administration of test item; assay type: in vivo; conditions: rats, oral 0.2 mg/kg, in average
Protocol: DELAQ in rat plasma was also determined under the following condition. The plasma was purified by on-line SPE after precipitation with LUDOX AS-40 colloidal silica solution followed by the analysis with HPLC with MS/MS detection. The main objectives of this example were: • Quantification of Compound 1, Compound 2, Compound 3 and Laquinimod in rat plasma using LC/MS/MS bioanalytical method. • Characterization of the pharmacokinetic profile of Compound 1, Compound 2, Compound 3 and Laquinimod following oral (PO) administration at a dose of 0.2 mg/kg. • The measurement DELAQ concentrations in the collected plasma samples. Blood was withdrawn from the rats at five different time points for the preparation of plasma. The concentrations of Compound 1, Compound 2, Compound 3, laquinimod, and DELAQ were determined in these plasma samples, using applicable LC/MS/MS methods. The concentrations of test items (Compound 1, Compound 2, Compound 3 and Laquinimod) and the concentration of DELAQ were determined in the plasma samples by using reliable LC/MS/MS assay.

[3] = system: MOG induced EAE; test: MOG induced EAE in C57BL/6 mice; assay type: in vivo; conditions: daily; for Mortality: Day 0 to Day 30; for % inhibition 1 (according to incidence) / % inhibition 2 (according to MMS) / % inhibition 3 (according to GMS): compared to vehicle; for Incidence: sick mice/group
[4] = system: cultured human hepatocytes; assay type: in vitro ADME
Protocol: Just prior to treatment, on each day of treatment, and just prior to incubation of the marker substrates, spent culture medium (spent dosing media) were collected from the vehicle, laquinimod and Compound 2 treatment groups. Approximately 150 μL was collected from each of three wells, from each aforementioned treatment groups, and pooled for each sample to a final volume of approximately 450 μL. These spent media samples were analyzed for residual laquinimod, Compound 2 and the de-ethylated metabolite (DELAQ).
The concentrations of Compound 2, laquinimod and DELAQ were measured in spent media aliquots from media collected just prior to treatment, on each day of treatment, and just prior to incubation of the marker substrates. The concentration of formed DELAQ was approximately 2-fold higher in the laquinimod media compared to the Compound 2 media. At the 10 μM treatment concentrations of either Compound 2 or laquinimod, the ratio of Compound 2:DELAQ was on average, 40.9 while the ratio of laquinimod:DELAQ was on average, 15.7. This represents an approximately 3-fold increase in the formation of DELAQ from laquinimod compared to Compound 2 and is explained by the presence of deuterium on the ethyl moiety which results in slower N-deethylation.

[5] = system: human hepatocyte culture H971; test: Morphology of cultured human hepatocytes after treatment; assay type: cell-based; conditions: within 24 hours after final treatment
Protocol: At the time of isolation the viability of the human hepatocyte preparation was 70.9%. During and after the 72-hour adaptation period, the culture was observed daily by light microscopy and judged to be morphologically normal with confluency adequate for treatment with test and control articles. Within 24 hours after the final treatment, hepatocytes were photographed to document their morphological integrity and any overt signs of toxicity of the test articles. Representative photomicrographs are maintained at the Testing Facility. […] Prior to and during treatment, human hepatocyte cultures formed confluent monolayers with few intercellular spaces; they were cuboidal and contained intact cell membranes and granular cytoplasm with one or two centrally located nuclei.

[6] = female, rat, po, 0.2 mg/kg, Average of rats
[7] = female, rat, po, 0.2 mg/kg, Average of rats, read-out: Cmax
[8] = female, rat, po, 0.2 mg/kg, Average of rats, read-out: Tmax
[9] = female, rat, po, 0.2 mg/kg, individual rats
[10] = female, rat, po, 0.2 mg/kg, individual rats, read-out: Cmax
[11] = female, rat, po, 0.2 mg/kg, individual rats, read-out: Tmax
[12] = individual rats, oral 0.2 mg/kg

Row | SMILES | AUC(0-inf) [1, 6] | AUC(0-t) [1, 6] | half-life [1, 6] | Cmax [1, 7] | Tmax [1, 8] | AUC(0-inf) [1, 9] | AUC(0-t) [1, 9] | half-life [1, 9] | Cmax [1, 10] | Tmax [1, 11] | AUCinf [1, 12] | AUClast [1, 12] | Cmax [1, 12] | T1/2 [1, 12] | Tmax [1, 12] | GMS value (group mean score) ([3]; 10 mg/kg orally) | MMS value (mean maximal score) ([3]; 10 mg/kg orally) | Mean Duration ([3]; 10 mg/kg orally) | Mean Onset ([3]; 10 mg/kg orally) | Mortality ([3]; 10 mg/kg orally) | other results
1 | [2H]C([2H])([2H])C([2H])([2H])N(C(=O)c1c(O)c2c(Cl)cccc2n(C)c1=O)c1ccccc1 [Compound 2, N-D5-ethyl-N-phenyl-1,2-dihydro-4-hydroxy-5-chloro-1-methyl-2-oxoquinoline-3-carboxamide] | 12300 ng·h/mL | 10300 ng·h/mL | 13.8 h | 725 ng/mL | 1.8 h | 10000 ng·h/mL | 10000 ng·h/mL | 13.6 h | 704 ng/mL | 2 h | 14699.6 ng·h/mL and 12439.0 ng·h/mL and 11975.3 ng·h/mL | 10422.1 ng·h/mL and 8741.6 ng·h/mL and 11975.3 ng·h/mL | 827.6 ng/mL and 551.4 ng/mL and 816.2 ng/mL | 13.4 h and 14.6 h | 1.0 h | 0.79 ± 0.2 | 2.1 ± 1.3 | 13.2 ± 7.7 days | 15.3 ± 6.8 days | 0/15 | reduction in DELAQ concentrations compared to laquinimod treated animals [2]: about ten-fold; activity in inhibition of EAE clinical signs compared to laquinimod ([3]; 10 mg/kg orally): no significant difference in activity; % inhibition 1 (according to incidence) ([3]; 10 mg/kg orally): 7.1%; % inhibition 2 (according to MMS) ([3]; 10 mg/kg orally): 34.4%; % inhibition 3 (according to GMS) ([3]; 10 mg/kg orally): 64.3%; Incidence ([3]; 10 mg/kg orally): 13/15; difference in the Compound 2:DELAQ to laquinimod:DELAQ ratio ([4]; 10 μM): ~3 fold; ratio of test article:DELAQ in spent media, on average ([4]; 10 μM): 40.9; cell morphology after treatment [5]: no changes in cell morphology
2 | CCN(C(=O)c1c(O)c2c(Cl)cccc2n(C)c1=O)c1ccccc1 [Laquinimod, N-ethyl-N-phenyl-1,2-dihydro-4-hydroxy-5-chloro-1-methyl-2-oxoquinoline-3-carboxamide] | 15500 ng·h/mL | 11700 ng·h/mL | 11.8 h | 794 ng/mL | 1.7 h | 14700 ng·h/mL | 11000 ng·h/mL | 12 h | 770 ng/mL | 2 h | 17141.8 ng·h/mL and 14684.6 ng·h/mL | 12659.7 ng·h/mL and 11487.3 ng·h/mL | 774.8 ng/mL and 838.8 ng/mL | 12.4 h and 10.9 h | 1.0 h | 1.14 ± 0.5 | 2.1 ± 1.9 | 9.3 ± 8.3 days | 21.6 ± 8.4 days | 0/15 | % inhibition 1 (according to incidence) ([3]; 10 mg/kg orally): 35.7%; % inhibition 2 (according to MMS) ([3]; 10 mg/kg orally): 34.4%; % inhibition 3 (according to GMS) ([3]; 10 mg/kg orally): 48.4%; % inhibition 3 (according to GMS) ([3]; 10 mg/kg orally, listed as laquinimod): 48.4%; Incidence ([3]; 10 mg/kg orally): 9/15; GMS value (group mean score) ([3]; 25 mg/kg orally): 0.5±0.1 and 0.5 ± 0.13; MMS value (mean maximal score) ([3]; 25 mg/kg orally): 1.3±1.8; Mean Duration ([3]; 25 mg/kg orally): 3.0 ± 5.8 days; Mean Onset ([3]; 25 mg/kg orally): 28.0 ± 5.8 days; Mortality ([3]; 25 mg/kg orally): 0/15; % inhibition 1 (according to incidence) ([3]; 25 mg/kg orally): 71.4%; % inhibition 2 (according to MMS) ([3]; 25 mg/kg orally): 59.4%; % inhibition 3 (according to GMS) ([3]; 25 mg/kg orally): 97.7%; Incidence ([3]; 25 mg/kg orally): 4/15; concentration of formed DELAQ in laquinimod media compared to Compound 2 media [4]: approximately 2 fold; increase in the formation of DELAQ from laquinimod compared to Compound 2 ([4]; 10 μM): approximately 3 fold; ratio of test article:DELAQ in spent media, on average ([4]; 10 μM): 15.7; cell morphology after treatment [5]: no changes in cell morphology
